Consider 20 compounds from patent US8404708B2, “Dual NK1/NK3 receptor antagonists” (Hoffmann-La Roche Inc., priority 2004, dated 2013).

Experiment [1] has as its target T1, Recombinant human NK3 (hNK3) receptor (Homo sapiens, UniProt P29371).
T1 construct: expressed in transfected cells
T1 sequence (P29371 1-465): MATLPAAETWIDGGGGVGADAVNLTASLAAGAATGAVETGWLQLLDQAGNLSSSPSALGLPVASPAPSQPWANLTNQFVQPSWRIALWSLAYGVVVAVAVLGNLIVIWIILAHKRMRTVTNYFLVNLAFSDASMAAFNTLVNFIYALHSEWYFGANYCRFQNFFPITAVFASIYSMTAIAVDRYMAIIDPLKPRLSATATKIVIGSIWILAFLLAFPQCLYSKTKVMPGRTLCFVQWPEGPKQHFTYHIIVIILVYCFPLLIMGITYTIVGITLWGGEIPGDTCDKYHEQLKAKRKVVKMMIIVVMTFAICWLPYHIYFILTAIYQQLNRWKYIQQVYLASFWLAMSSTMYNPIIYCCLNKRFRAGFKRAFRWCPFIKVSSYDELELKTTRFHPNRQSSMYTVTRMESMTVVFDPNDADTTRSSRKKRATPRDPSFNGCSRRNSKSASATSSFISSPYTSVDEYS
Put plainly: NK3 receptor binding, [3H]SR142801 displacement, membrane preparations. The procedure, abridged: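 Buffer: Tris-HCl 50 mM pH 7.4, BSA 0.1%, MnCl2 4 mM, phosphoramidon 1 μM. ~2.5 μg membrane/well, 90 min RT. NSB with SB222200 (10 μM). Vacuum filtration over 0.3% PEI-treated GF/C, cold Tris/BSA washes, scintillation count; duplicates, ≥2 experiments.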

The target of the next experiment is human NK1 receptor (Homo sapiens, UniProt P25103). Briefly: NK1 receptor binding, [3H]substance P displacement, CHO cell membranes.
Sequence of human NK1 receptor (P25103 whole entry): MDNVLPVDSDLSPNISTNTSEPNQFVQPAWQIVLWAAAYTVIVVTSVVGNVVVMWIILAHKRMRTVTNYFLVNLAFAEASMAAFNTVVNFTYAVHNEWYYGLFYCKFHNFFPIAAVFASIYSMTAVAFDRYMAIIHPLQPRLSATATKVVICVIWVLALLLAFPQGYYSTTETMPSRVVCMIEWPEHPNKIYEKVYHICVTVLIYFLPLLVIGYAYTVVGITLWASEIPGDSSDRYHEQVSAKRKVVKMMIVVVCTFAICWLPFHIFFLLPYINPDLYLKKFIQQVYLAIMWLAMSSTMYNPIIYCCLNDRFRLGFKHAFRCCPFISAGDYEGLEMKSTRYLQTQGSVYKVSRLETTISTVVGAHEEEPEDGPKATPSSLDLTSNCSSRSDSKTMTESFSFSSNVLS
[2] abbreviates: second value of the cell pKi NK1/NK3, hNK3 receptor, [3H]SR142801.
Setting [3] is: first value of the cell pKi NK1/NK3, human NK1 receptor, [3H]substance P.
[4] abbreviates: second value of the cell NK1/NK3, read-out: pKi NK3 (converted).
[5] abbreviates: first value of the cell NK1/NK3, read-out: pKi NK1 (converted).

SMILES strings stand for the structures. Like-named read-outs stand apart in the source and are kept apart here.

For `CN(C(=O)C(C)(C)c1cc(C(F)(F)F)cc(C(F)(F)F)c1)c1cnc(N2CCCCC2CO)cc1-c1ccccc1Cl` (racemic) [Example 141, (RS)-2-(3,5-Bis-trifluoromethyl-phenyl)-N-[4′-(2-chloro-phenyl)-2-hydroxymethyl-3,4,5,6-tetrahydro-2H-[1,2′]bipyridinyl-5′-yl]-N-methyl-isobutyramide], the Ki in experiment [1] (setting [2]) is 18.6 nM; on human NK1 receptor (setting [3]), 6.46 nM.

With `Cc1cc(F)ccc1-c1cc(N2C[C@H](O)C[C@H]2CO)ncc1N(C)C(=O)C(C)(C)c1cccc(C(F)(F)F)c1` [Example 27, (2S,4R)-N-[4-(4-Fluoro-2-methyl-phenyl)-6-(4-hydroxy-2-hydroxymethyl-pyrrolidin-1-yl)-pyridin-3-yl]-N-methyl-2-(3-trifluoromethyl-phenyl)-isobutyramide], the Ki was 10.7 nM in experiment [1] (setting [2]) and 1.51 nM on human NK1 receptor (setting [3]).

For `CN(C(=O)C(C)(C)c1cc(C(F)(F)F)cc(C(F)(F)F)c1)c1cnc(N2CC[C@H](O)[C@H]2CO)cc1-c1ccc(F)cc1` [Example 266, (2R,3S)-2-(3,5-Bis-trifluoromethyl-phenyl)-N-[4-(4-fluoro-phenyl)-6-(3-hydroxy-2-hydroxymethyl-pyrrolidin-1-yl)-pyridin-3-yl]-N-methyl-isobutyramide], the values for the Ki (in experiment [1] (setting [4]); at human NK1 receptor (setting [5])) were 3.8 nM and 1.2 nM, respectively.

As to `CN(C(=O)C(C)(C)c1cc(Cl)cc(Cl)c1)c1cnc(NCCO)cc1-c1ccccc1Cl` [Example 1, N-[4-(2-Chloro-phenyl)-6-(2-hydroxy-ethylamino)-pyridin-3-yl]-2-(3,5-dichloro-phenyl)-N-methyl-isobutyramide], the Ki in experiment [1] (setting [2]) was 8.91 nM; at human NK1 receptor (setting [3]), 2.75 nM.

Turning to `Cc1cc(F)ccc1-c1cc(N2CC(F)(F)C[C@H]2CO)ncc1N(C)C(=O)C(C)(C)c1cc(C(F)(F)F)cc(C(F)(F)F)c1` [Example 300, (S)-2-(3,5-Bis-trifluoromethyl-phenyl)-N-[6-(4,4-difluoro-2-hydroxymethyl-pyrrolidin-1-yl)-4-(4-fluoro-2-methyl-phenyl)-pyridin-3-yl]-N-methyl-isobutyramide], the results for the Ki (in experiment [1] (setting [4]); on human NK1 receptor (setting [5])) were 0.49 nM and 0.955 nM, respectively.

Turning to `Cc1cc(F)ccc1-c1cc(N2CCC(S(C)(=O)=O)C2)ncc1N(C)C(=O)C(C)(C)c1cc(C(F)(F)F)cc(C(F)(F)F)c1` (racemic) [Example 170, (RS)-2-(3,5-Bis-trifluoromethyl-phenyl)-N-[4-(4-fluoro-2-methyl-phenyl)-6-(3-methanesulfonyl-pyrrolidin-1-yl)-pyridin-3-yl]-N-methyl-isobutyramide], the results for the Ki (in experiment [1] (setting [2]); at human NK1 receptor (setting [3])) were 9.12 nM and 1.95 nM, respectively.

For `Cc1ncccc1-c1cc(N(CCO)CCO)ncc1N(C)C(=O)C(C)(C)c1cc(C(F)(F)F)cc(C(F)(F)F)c1` [Example 291, N-{6′-[Bis-(2-hydroxy-ethyl)-amino]-2-methyl-[3,4′]bipyridinyl-3′-yl}-2-(3,5-bis-trifluoromethyl-phenyl)-N-methyl-isobutyramide], the results for the Ki (in experiment [1] (setting [4]); on human NK1 receptor (setting [5])) were 7.76 nM and 3.31 nM, respectively.

As for `CC(=O)NC1CCN(c2cc(-c3ccc(F)cc3C)c(N(C)C(=O)C(C)(C)c3cc(C(F)(F)F)cc(C(F)(F)F)c3)cn2)CC1` [Example 114, N-[4-Acetylamino-4′-(4-fluoro-2-methyl-phenyl)-3,4,5,6-tetrahydro-2H-[1,2′]bipyridinyl-5′-yl]-2-(3,5-bis-trifluoromethyl-phenyl)-N-methyl-isobutyramide], the Ki was 16.2 nM in experiment [1] (setting [2]) and 0.603 nM at human NK1 receptor (setting [3]).

As to `CN(C(=O)C(C)(C)c1cc(C(F)(F)F)cc(C(F)(F)F)c1)c1cnc(N2CCC[C@H]2CO)cc1-c1ccc(Cl)cc1Cl` [Example 283, (S)-2-(3,5-Bis-trifluoromethyl-phenyl)-N-[4-(2,4-dichloro-phenyl)-6-(2-hydroxymethyl-pyrrolidin-1-yl)-pyridin-3-yl]-N-methyl-isobutyramide], the Ki in experiment [1] (setting [4]) is 1.48 nM; at human NK1 receptor (setting [5]), 2.82 nM.

As to `Cc1cc(C)cc(C(C)(C)C(=O)N(C)c2cnc(N3C[C@H](O)C[C@H]3CO)cc2-c2ccc(F)cc2C)c1` [Example 33, (2S,4R)-2-(3,5-Dimethyl-phenyl)-N-[4-(4-fluoro-2-methyl-phenyl)-6-(4-hydroxy-2-hydroxymethyl-pyrrolidin-1-yl)-pyridin-3-yl]-N-methyl-isobutyramide], the values for the Ki (in experiment [1] (setting [2]); at human NK1 receptor (setting [3])) were 3.02 nM and 1.17 nM, respectively.

In the case of `CN(C(=O)C(C)(C)c1cc(C(F)(F)F)cc(C(F)(F)F)c1)c1cnc(N2CCC[C@H]2CO)cc1-c1ccccc1Cl` [Example 42, (S)-2-(3,5-Bis-trifluoromethyl-phenyl)-N-[4-(2-chloro-phenyl)-6-(2-hydroxymethyl-pyrrolidin-1-yl)-pyridin-3-yl]-N-methyl-isobutyramide], the figures for the Ki (in experiment [1] (setting [2]); on human NK1 receptor (setting [3])) were 0.832 nM and 1.66 nM, respectively.

Consider `Cc1ccccc1-c1cc(N2CCC[C@H]2CO)ncc1N(C)C(=O)C(C)(C)c1cc(F)cc(F)c1` [Example 15, (S)-2-(3,5-Difluoro-phenyl)-N-[6-(2-hydroxymethyl-pyrrolidin-1-yl)-4-o-tolyl-pyridin-3-yl]-N-methyl-isobutyramide], for which the results for the Ki (in experiment [1] (setting [2]); on human NK1 receptor (setting [3])) were 4.47 nM and 6.31 nM, respectively.

Consider `COc1ccccc1-c1cc(N2C[C@H](O)C[C@H]2CO)ncc1N(C)C(=O)C(C)(C)c1cc(C(F)(F)F)cc(C(F)(F)F)c1` [Example 214, (2S,4R)-2-(3,5-Bis-trifluoromethyl-phenyl)-N-[6-(4-hydroxy-2-hydroxymethyl-pyrrolidin-1-yl)-4-(2-methoxy-phenyl)-pyridin-3-yl]-N-methyl-isobutyramide], for which the Ki in experiment [1] (setting [4]) was 2.75 nM; at human NK1 receptor (setting [5]), 1.02 nM.

Regarding `Cc1ccc(-c2cc(N3C[C@H](O)C[C@H]3CO)ncc2N(C)C(=O)C(C)(C)c2cc(C(F)(F)F)cc(C(F)(F)F)c2)cc1F` [Example 210, (2S,4R)-2-(3,5-Bis-trifluoromethyl-phenyl)-N-[4-(3-fluoro-4-methyl-phenyl)-6-(4-hydroxy-2-hydroxymethyl-pyrrolidin-1-yl)-pyridin-3-yl]-N-methyl-isobutyramide], the Ki in experiment [1] (setting [4]) was 13.8 nM; on human NK1 receptor (setting [5]), 2.29 nM.

On to `CN(C(=O)C(C)(C)c1cc(C(F)(F)F)cc(C(F)(F)F)c1)c1cnc(N2C[C@H](O)C[C@H]2CO)cc1-c1cccc(Cl)c1Cl` [Example 229, (2S,4R)-2-(3,5-Bis-trifluoromethyl-phenyl)-N-[4-(2,3-dichloro-phenyl)-6-(4-hydroxy-2-hydroxymethyl-pyrrolidin-1-yl)-pyridin-3-yl]-N-methyl-isobutyramide], for which the Ki in experiment [1] (setting [4]) is 1.86 nM; on human NK1 receptor (setting [5]), 2.95 nM.

In the case of `Cc1ccccc1-c1cc(N2CCC[C@H]2CO)ncc1N(C)C(=O)C(C)(C)c1cc(Cl)cc(OC(F)F)c1` [Example 36, (S)-2-(3-Chloro-5-difluoromethoxy-phenyl)-N-[6-(2-hydroxymethyl-pyrrolidin-1-yl)-4-o-tolyl-pyridin-3-yl]-N-methyl-isobutyramide], the Ki in experiment [1] (setting [2]) was 0.708 nM; at human NK1 receptor (setting [3]), 4.27 nM.

Regarding `CN(C(=O)C(C)(C)c1cc(C(F)(F)F)cc(C(F)(F)F)c1)c1cnc(N2CC[C@H](O)[C@H]2CO)cc1-c1ccc(Cl)cc1Cl` [Example 137, (2R,3S)-2-(3,5-Bis-trifluoromethyl-phenyl)-N-[4-(2,4-dichloro-phenyl)-6-(3-hydroxy-2-hydroxymethyl-pyrrolidin-1-yl)-pyridin-3-yl]-N-methyl-isobutyramide], the Ki in experiment [1] (setting [2]) is 1.35 nM; on human NK1 receptor (setting [3]), 2.82 nM.

On to `CN(C(=O)C(C)(C)c1cc(C(F)(F)F)cc(C(F)(F)F)c1)c1cnc(N2C[C@H](O)C[C@H]2CO)cc1-c1ccccc1O` [Example 215, (2S,4R)-2-(3,5-Bis-trifluoromethyl-phenyl)-N-[6-(4-hydroxy-2-hydroxymethyl-pyrrolidin-1-yl)-4-(2-hydroxy-phenyl)-pyridin-3-yl]-N-methyl-isobutyramide], for which the Ki is 4.47 nM in experiment [1] (setting [4]) and 1.02 nM on human NK1 receptor (setting [5]).

As to `CN(C(=O)C(C)(C)c1cc(C(F)(F)F)cc(C(F)(F)F)c1)c1cnc(N2C[C@H](O)C[C@H]2CO)cc1-c1ccc(Cl)c(Cl)c1` [Example 135, (2S,4R)-2-(3,5-Bis-trifluoromethyl-phenyl)-N-[4-(3,4-dichloro-phenyl)-6-(4-hydroxy-2-hydroxymethyl-pyrrolidin-1-yl)-pyridin-3-yl]-N-methyl-isobutyramide], the Ki is 31.6 nM in experiment [1] (setting [2]) and 4.27 nM at human NK1 receptor (setting [3]).

For `Cc1cc(F)ccc1-c1cc(N2CCC[C@H]2COC(=O)N(C)C)ncc1N(C)C(=O)C(C)(C)c1cc(C(F)(F)F)cc(C(F)(F)F)c1` [Example 303, (S)-Dimethyl-carbamic Acid 1-[5-{[2-(3,5-bis-trifluoromethyl-phenyl)-2-methyl-propionyl]-methyl-amino}-4-(4-fluoro-2-methyl-phenyl)-pyridin-2-yl]-pyrrolidin-2-ylmethyl Ester], the figures for the Ki (in experiment [1] (setting [4]); on human NK1 receptor (setting [5])) were 15.1 nM and 1.32 nM, respectively.
